Test results taken from patent US20140243418A1, “RASAGILINE FOR PARKINSON'S DISEASE MODIFICATION” (Teva Pharmaceutical Industries, Ltd., priority 2008, published 2014).

Tests used:
PD patients = settings: cited from earlier work
Early Stage PD patients [1] = settings: 1 mg only; end of the PC phase
Description: (§1) III. Additional Efficacy Endpoints • 1. Number (%) of subjects who need additional anti-PD therapy • 2. Time to need of additional anti-PD therapy • 3. Change from baseline to LOV in placebo-controlled phase in Part I of revised UPDRS (version 4)

Early Stage PD patients [2] = tested on: Early Stage PD patients
Description: If, at any stage during the placebo-controlled phase the investigator determines that a subject needs additional anti-PD therapy, the subject will proceed to Phase II of the study. The investigator, aided by a questionnaire, will give careful consideration to the issue of a subject's need for additional anti-PD therapy. Scheduled in-clinic visits will be conducted at baseline and at weeks 4, 12, 24 and 36. Therefore, altogether there will be 5 scheduled visits during this phase. Unscheduled visits may be conducted at any time to assess a subject's need for additional anti-PD therapy, for safety reasons or for any other reason.
as §1

Early Stage PD patients [3] = settings: rasagiline 1 mg and 2 mg; end of the PC phase
Description: IV. Sub-Study • 1. Change from baseline to LOV in placebo-controlled phase in Parkinson Fatigue scale • 2. Change from baseline in Subject Reported Outcomes (US only) • 3. A blood sample for pharmacogenetic analysis will be collected from all subjects at baseline. If not performed at baseline, can be performed at any other visit. Participation in this sub-study is voluntary pending IRB/EC approval and subject's authorization on a separate informed consent form.

C#CCN[C@@H]1CCc2ccccc21 [rasagiline]
functional decline vs treatment delayed for 6 months (PD patients; 1 and 2 mg/d rasagiline for one year, TEMPO): less functional decline
efficacy as monotherapy in PD patients (PD patients; first 6-month double-blind, randomized placebo-controlled stage of TEMPO): efficacious as monotherapy
UPDRS Version 4 Part 1 (Early Stage PD patients [1]): beneficial effect
Hazard Ratio, time to additional anti-PD therapy, 1 mg-Placebo Difference (Early Stage PD patients [2]; PC Phase, rasagiline 1 mg vs placebo, Cox Proportional Hazards Model): 0.385
Hazard Ratio, time to additional anti-PD therapy, 2 mg-Placebo Difference (Early Stage PD patients [2]; PC Phase, rasagiline 2 mg vs placebo, Cox Proportional Hazards Model): 0.379
Need for additional anti PD Therapy (Early Stage PD patients [2]; rasagiline 1 mg and 2 mg, end of the PC phase): beneficial effect
Parkinson Fatigue Scale (Early Stage PD patients [3]): beneficial effect
